According to ChEMBL document CHEMBL5727173, “Phenyl-(aza)cycloalkyl carboxylic acid GPR120 modulators” (2019):

Target: T1, Free fatty acid receptor 4 (Homo sapiens, UniProt Q5NUL3)
T1 sequence (Q5NUL3 whole entry): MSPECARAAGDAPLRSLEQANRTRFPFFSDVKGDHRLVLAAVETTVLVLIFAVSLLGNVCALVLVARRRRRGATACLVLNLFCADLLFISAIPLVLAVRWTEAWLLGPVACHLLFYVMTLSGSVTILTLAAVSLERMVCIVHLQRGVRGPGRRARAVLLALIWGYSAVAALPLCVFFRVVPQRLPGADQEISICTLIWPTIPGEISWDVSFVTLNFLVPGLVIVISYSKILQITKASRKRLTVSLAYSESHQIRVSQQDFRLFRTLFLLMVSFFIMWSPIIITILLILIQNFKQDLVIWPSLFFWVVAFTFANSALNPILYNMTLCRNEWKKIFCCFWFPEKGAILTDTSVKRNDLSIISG
Test: GPR120 pERK AlphaScreen SureFire Assay: The human and mouse GPR120-mediated intracellular phosphorylated ERK assays were also established using CHO-K1 cells stably transfected with the short form of human or mouse GPR120 receptor. Cells were cultured in growth medium consisting of F-12 media (Invitrogen Cat. #11765) with 5% Charcoal/Dextran FBS (Invitrogen Cat. #12676-029) and 500 μg/mL GENETICIN® (Life Technologies Cat. #10131-027). Cells were cryo preserved at a concentration of 3×10^6 cells/mL, in 70% F-12, 20% Charcoal/Dextran FBS and 10% DMSO, and frozen in liquid nitrogen at a low passage number.For the pERK assay, 3×10^6 cells/mL cryopreserved human and mouse cells were thawed rapidly in a 37° C. water bath and added to a T-225 flask containing 50 mL growth medium. The flasks were placed in a tissue culture incubator overnight (37° C., 5% CO2). The next day, cells were harvested with trypsin (Gibco Cat. #25300-054), resuspended in serum-containing growth medium and counted using a Cellometer and volume adjusted to a concentration of 0.5×10^6 cells/mL. Cells were plated into 384-well clear bottom tissue culture plates (BD Cat. #353962) at 50 μL/well, for a density of 25,000 cells/well using a MULTIDROP® and incubated for 16-18 hours (overnight) at 37° C. with 5% CO2. The next day, cells were washed once with 50 μL of PBS without Ca++/Mg++ (Gibco Cat. #14190-036) and serum starved in 25 μL of F-12 media without any serum or antibiotics for 2 hours at 37° C.
Type: cell-based

SMILES	EC50 [nM]
O=C(O)CCCCc1ccc(C2CCCC(Nc3ccccc3)C2)cc1 (stereo not given)	3030
O=C(O)COCCc1ccc(N2CCCC(Oc3ccccc3)C2)cc1 (stereo not given)	2420
O=C(O)CCCCc1ccc(N2CCCCC(Oc3ccc(F)cc3)C2)cc1 (stereo not given)	3550

Continued by falling EC50, values first:

EC50 [nM]	SMILES
780	O=C(O)CCCCc1ccc(N2CCC[C@@H](Oc3ccccc3)C2)cc1
420	O=C(O)CCCCc1ccc(N2CCCC(Oc3ccccc3)C2)cc1 (stereo not given)
